Experiments:
[1] = test system: Escherichia coli ou Staphylococcus aureus; assay: Visual comparison of bactericidal activity, free fatty acids vs conjugates; format: cell-based; design: key to Activité bactéricide sur Escherichia coli ou Staphylococcus aureus de l'acide gras seul: 0: pas d'activité, culture négative; +: correspond à 10^3 colonies; ++: correspond à 10^4 colonies; +++: correspond à 10^6 colonies; ++++: correspond à 10^7 colonies; details: visual scale; for Activité bactéricide sur Escherichia coli ou Staphylococcus aureus du conjugué: conjugate of the named fatty acid according to the invention; for Activité bactéricide sur Escherichia coli ou Staphylococcus aureus de l'acide gras seul: free, unbound fatty acid
Excerpt: Les résultats sont évalués visuellement selon l'échelle suivante : • 0 pas d'activité, culture négative • + correspond à 10^3 colonies • ++ correspond à 10^4 colonies • +++ correspond à 10^6 colonies, et • ++++ correspond à 10^7 colonies.

Pseudomonas aeruginosa = assay: Lysis zone on agar plate; format: cell-based; details: fatty acid on poly-L-Lysine 5×10^-3M, 50µl, 16 h at 37°
Citrobacter koserii = details: Citro bacter koserii; fatty acid on poly-L-Lysine 5×10^-3M; 50µl; 16 h at 37°
Enterobacter Hafniae = details: fatty acid on poly-L-Lysine 5×10^-3M, 50µl, 16 h at 37°
Excerpt: (§1) Les différents essais ont été réalisés selon le mode opératoire décrit en suivant. Les effets anti-bactéricides et anti-fongiques des solutions testées ont été évalués sur des boîtes contenant des milieux de cultures appropriés à la croissance : • gélose chocolat haemophilus pour la culture de Neisseria, • gélose BCP pour les germes peu exigeants, • gélose Mueller Hinton 2 (MH2-F) pour la majorité des souches bactériennes sauf Neisseria et les streptocoques, • gélose columbia ANC (COL ANC-F) pour les streptocoques, • gélose Sabouraud gentamicine chloramphénicol (SAB GENTA CHL-F) pour les candidas albicans et les levures en général, et • milieu Leowenstein, Coletsos pour Mycobacterium tuberculosis.
(§2) Les boîtes sont recouvertes par 1ml de solution bactérienne ou mycosique à la concentration de 0,5 à 1 de Mac Farland (lecture au densitomètre) soit 1,5×10^8 bactéries/ml.
(§3) La boîte est ensuite séchée 15 minutes à 37°, et on applique 2 gouttes (50µl) de chaque solution à tester.
(§4) La boîte de culture est recouverte après 16 heures d'incubation à 37°.
(§5) Chaque plage de lyse due à l'activité anti-bactérienne ou anti-fongique des conjugués est mesurée. La lecture de l'effet bactéricide ou antifongique est mesurée en cm^2.

Streptocoque D = details: fatty acid on poly-L-Lysine 5×10^-3M, 50µl, 16 h at 37°
Excerpt: as §1, §2, §3, §4, §5

Candida albicans = details: fatty acid on poly-L-Lysine 5×10^-3M, 50µl, 16 h at 37°
Excerpt: as §1, §2, §3, §4, §5

Proteus Mirabilis = details: fatty acid on poly-L-Lysine 5×10^-3M, 50µl, 16 h at 37°
Excerpt: as §1, §2, §3, §4, §5

Morganella Morganii = details: fatty acid on poly-L-Lysine 5×10^-3M, 50µl, 16 h at 37°
Excerpt: as §1, §2, §3, §4, §5

Streptocoque B = details: fatty acid on poly-L-Lysine 5×10^-3M, 50µl, 16 h at 37°
Excerpt: as §1, §2, §3, §4, §5

Klebsiella oxytoca = details: fatty acid on poly-L-Lysine 5×10^-3M, 50µl, 16 h at 37°
Excerpt: as §1, §2, §3, §4, §5

Nesseria = details: fatty acid on poly-L-Lysine 5×10^-3M, 50µl, 16 h at 37°
Staphylococcus aureus = assay: Lysis zone on agar plate; format: cell-based; details: fatty acid on poly-L-Lysine 5×10^-3M, 50µl, 16 h at 37°
[2] = test system: souche multirésistante de staphylococcus epidermidis; details: each component's concentration within the combined solution capryl-poly-L-Lysine-lauryl + pyruvate-poly-L-Lysine
Escherichia coli = assay: Lysis zone on agar plate; format: cell-based; details: fatty acid on poly-L-Lysine 5×10^-3M, 50µl, 16 h at 37°

## CC(=O)O [C2 = acetate]
[1]
  Activité bactéricide sur Escherichia coli ou Staphylococcus aureus du conjugué: +++ (correspond à 10^6 colonies)
  Activité bactéricide sur Escherichia coli ou Staphylococcus aureus de l'acide gras seul: 0

## butyrate [C4 = butyrate]
[1]
  Activité bactéricide sur Escherichia coli ou Staphylococcus aureus du conjugué: +++ (correspond à 10^6 colonies)
  Activité bactéricide sur Escherichia coli ou Staphylococcus aureus de l'acide gras seul: 0

## Acide Caprylique
[1]
  Activité bactéricide sur Escherichia coli ou Staphylococcus aureus du conjugué: +++ (correspond à 10^6 colonies)
  Activité bactéricide sur Escherichia coli ou Staphylococcus aureus de l'acide gras seul: +++ (correspond à 10^6 colonies)

## CCCCCCCCCCCCCCCC(=O)O [Acide Palmitique]
[1]
  Activité bactéricide sur Escherichia coli ou Staphylococcus aureus du conjugué: + (correspond à 10^3 colonies)
  Activité bactéricide sur Escherichia coli ou Staphylococcus aureus de l'acide gras seul: 0

## propionyl-poly-L-Lysine [Propionylpoy-L-lysine]
Pseudomonas aeruginosa
  plage de lyse: 0 cm^2
Citrobacter koserii
  plage de lyse: 0 cm^2
Enterobacter Hafniae
  plage de lyse: 1,12 cm^2
Streptocoque D
  plage de lyse: 0 cm^2
Candida albicans
  plage de lyse: 2,13cm^2
Proteus Mirabilis
  plage de lyse: 0 cm^2
Morganella Morganii
  plage de lyse: 0 cm^2
Streptocoque B
  plage de lyse: 0 cm^2
Klebsiella oxytoca
  plage de lyse: 0 cm^2
Nesseria
  plage de lyse: 1,13 cm^2
Alcalescens Diaspar
  plage de lyse: 1,13cm^2 inhibition partielle
Staphylococcus aureus
  plage de lyse: 2,3 cm^2

## propionate [C3 = propionate]
[1]
  Activité bactéricide sur Escherichia coli ou Staphylococcus aureus du conjugué: +++ (correspond à 10^6 colonies)
  Activité bactéricide sur Escherichia coli ou Staphylococcus aureus de l'acide gras seul: 0

## CCCCCCCC/C=C\CCCCCCCC(=O)O [Acide Oléique]
[1]
  Activité bactéricide sur Escherichia coli ou Staphylococcus aureus du conjugué: + (correspond à 10^3 colonies)
  Activité bactéricide sur Escherichia coli ou Staphylococcus aureus de l'acide gras seul: + (correspond à 10^3 colonies)

## Acide Palmitoléique
[1]
  Activité bactéricide sur Escherichia coli ou Staphylococcus aureus du conjugué: +++ (correspond à 10^6 colonies)
  Activité bactéricide sur Escherichia coli ou Staphylococcus aureus de l'acide gras seul: ++ (correspond à 10^4 colonies)

## CCCCCCCCCCCC(=O)O [Acide Laurique]
[1]
  Activité bactéricide sur Escherichia coli ou Staphylococcus aureus du conjugué: ++ (correspond à 10^4 colonies)
  Activité bactéricide sur Escherichia coli ou Staphylococcus aureus de l'acide gras seul: ++++ (correspond à 10^7 colonies)

## Farnesyl-cystéine
[1]
  Activité bactéricide sur Escherichia coli ou Staphylococcus aureus du conjugué: ++ (correspond à 10^4 colonies)
  Activité bactéricide sur Escherichia coli ou Staphylococcus aureus de l'acide gras seul: 0

## CCCCCCCCCC(=O)O [Acide Caprique]
[1]
  Activité bactéricide sur Escherichia coli ou Staphylococcus aureus du conjugué: +++ (correspond à 10^6 colonies)
  Activité bactéricide sur Escherichia coli ou Staphylococcus aureus de l'acide gras seul: ++++ (correspond à 10^7 colonies)

## pyruvyl-poly-L-Lysine
Pseudomonas aeruginosa
  plage de lyse: 1,32 cm^2
Citrobacter koserii
  plage de lyse: 1,54 cm^2
Enterobacter Hafniae
  plage de lyse: 2,27 cm^2
Streptocoque D
  plage de lyse: 2,27 cm^2
Candida albicans
  plage de lyse: 2,46 cm^2
Proteus Mirabilis
  plage de lyse: 0 cm^2
Morganella Morganii
  plage de lyse: 0 cm^2
Streptocoque B
  plage de lyse: 1,77cm^2 qqls colonies
Klebsiella oxytoca
  plage de lyse: 1,33 cm^2
Nesseria
  plage de lyse: 2,01cm^2
Alcalescens Diaspar
  plage de lyse: 1,53cm^2
Staphylococcus aureus
  plage de lyse: 2,13 cm^2
[2]
  concentration minimale inhibitrice: < 1,25×10^4 M
Escherichia coli
  plage de lyse: 2,09 cm^2

## acétyl-poly-L-Lysine [Acétyl- poly-L-Lysine]
Citrobacter koserii
  plage de lyse: 1,77 cm^z cm^2
Enterobacter Hafniae
  plage de lyse: 2,71 cm^2
Streptocoque D
  plage de lyse: 4,15cm^2
Candida albicans
  plage de lyse: 1,97cm^2
Proteus Mirabilis
  plage de lyse: 0 cm^2
Morganella Morganii
  plage de lyse: 0 cm^2
Streptocoque B
  plage de lyse: 3,14 cm^2 colonies
Klebsiella oxytoca
  plage de lyse: 3,14 cm^2
Nesseria
  plage de lyse: 2,27cm^2
Alcalescens Diaspar
  plage de lyse: 1,4cm^2
Staphylococcus aureus
  plage de lyse: 1,68 cm^2
Escherichia coli
  plage de lyse: 0 cm^2

## CCCCCC(=O)O [Acide Caproïque]
[1]
  Activité bactéricide sur Escherichia coli ou Staphylococcus aureus du conjugué: +++ (correspond à 10^6 colonies)
  Activité bactéricide sur Escherichia coli ou Staphylococcus aureus de l'acide gras seul: ++ (correspond à 10^4 colonies)

## lactyl-Poly-L-Lysine
Pseudomonas aeruginosa
  plage de lyse: 2,34 cm^2
Citrobacter koserii
  plage de lyse: 1,13 cm^2
Enterobacter Hafniae
  plage de lyse: 1,44cm^2
Streptocoque D
  plage de lyse: 2,01 cm^2
Candida albicans
  plage de lyse: 1,05cm^2
Proteus Mirabilis
  plage de lyse: 0 cm^2
Morganella Morganii
  plage de lyse: 0 cm^2
Streptocoque B
  plage de lyse: peu sensible
Klebsiella oxytoca
  plage de lyse: 0 cm^2
Nesseria
  plage de lyse: 1,65cm^2
Alcalescens Diaspar
  plage de lyse: 1,53cm^2
Staphylococcus aureus
  plage de lyse: 1,82 cm^2
Escherichia coli
  plage de lyse: 1,92 cm^2

## CCCCCCCCCCCCCC(=O)O [Acide Myristique]
[1]
  Activité bactéricide sur Escherichia coli ou Staphylococcus aureus du conjugué: + (correspond à 10^3 colonies)
  Activité bactéricide sur Escherichia coli ou Staphylococcus aureus de l'acide gras seul: + (correspond à 10^3 colonies)

## capryl-poly-L-Lysine-lauryl [capryl-poly-Lysine-lauryl]
[2]
  concentration minimale inhibitrice: < 1,25×10^5 M

## butyryl-poly-L-Lysine [Butyryl- poly-L-Lysine]
Citrobacter koserii
  plage de lyse: 1,77 cm^2
Enterobacter Hafniae
  plage de lyse: 2,03 cm^2
Streptocoque D
  plage de lyse: 0 cm^2
Candida albicans
  plage de lyse: 2,3 cm^2
Proteus Mirabilis
  plage de lyse: 0 cm^2
Morganella Morganii
  plage de lyse: 0 cm^2
Streptocoque B
  plage de lyse: 1,33 cm^2 qqls colonies
Klebsiella oxytoca
  plage de lyse: 0 cm^2
Nesseria
  plage de lyse: 0,78 cm^2
Alcalescens Diaspar
  plage de lyse: 0,85 cm^2
Staphylococcus aureus
  plage de lyse: 1,82 cm^2
Escherichia coli
  plage de lyse: 2,65 cm^2

## CCCCC(=O)O [C5 = acide valérique, acide valérique]
[1]
  Activité bactéricide sur Escherichia coli ou Staphylococcus aureus du conjugué: +++ (correspond à 10^6 colonies)
  Activité bactéricide sur Escherichia coli ou Staphylococcus aureus de l'acide gras seul: 0
